Experimental data from patent publication US10301255B2, “Hepatitis B antiviral agents” (Enanta Pharmaceuticals, Inc., priority 2015, dated 2019).

system: HBV; experiment: HepAD38 antiviral assay: reduction of viral product accumulation (virion DNA by qPCR; HBsAg/HBeAg ELISA); type: cell-based; details: Hepatitis B virus, 120 h; HepAD38 cells, tetracycline removed; harvest five days after compound addition; 50% reduction of viral product vs no drug controls
Experimental: (§1) Methods: HepAD38 cells are maintained as previously reported (Ladner et at, Antimicrob. Agents Chemother. 1997, […], 1715). Briefly, cells are passaged upon attaining confluency in DMEM/F12 media in the presence of 10% FBS, Penn/Strep, 250 μg/mL G418, and 1 ug/ml tetracycline. Novel compounds are screened by first washing cells three times with PBS to remove tetracycline, and plating in 96 well plates at 35,000 cells/well. Compounds dissolved in DMSO are then diluted 1:200 into wells containing cells. Five days after compound addition, material is harvested for analysis. For an extended 8 day analysis, cells are plated and treated as described above, but media and compound are refreshed on d2 and d5 post initial treatment.
On harvest day, virion DNA is obtained by lysing with Sidestep Lysis and Stabilization Buffer and then quantified via quantitative real time PCR. Commercially available ELISA kits are used to quantitate the viral proteins HBsAg (Alpco) or HbeAg (US Biological) by following the manufacturer's recommended protocol after diluting samples to match the linear range of their respective assays. Irrespective of readout, compound concentrations that reduce viral product accumulation in the cell lysates or supernatants by 50% relative to no drug controls (EC50) are reported; EC50 ranges are as follows: A<1 μM; […].

O=C(Nc1ccc(C(F)(F)F)c(C2CC2)c1)c1ccc(Cl)c(C(F)(F)CCCO)c1 [Compound 11] and O=C(Nc1ccc(F)c(C2CC2)c1)c1ccc(Cl)c(C(F)(F)CCCO)c1 [Compound 15] cannot be ordered by EC50: over 10 µM for the first, over 10 µM for the second.

N#Cc1ccc(NC(=O)c2ccc(Cl)c(C(F)(F)CCCO)c2)cc1Cl [Compound 14] and N#Cc1cc(NC(=O)c2ccc(Cl)c(C(F)(F)CCCO)c2)ccc1Cl [Compound 4] cannot be ordered by EC50: over 10 µM for the first, over 10 µM for the second.

First: O=C(Nc1ccc(C2CC2)c(Cl)c1)c1ccc(Cl)c(C(F)(F)CCCO)c1 [Compound 12]
Second: COc1ccc(NC(=O)c2ccc(Cl)c(C(F)(F)CCCO)c2)cc1C1CC1 [Compound 6]
The EC50 of the first is higher: over 10 µM for the first, 1 to 10 µM for the second. The second is the more potent here.

O=C(Nc1cc(F)c(F)c(F)c1)c1ccc(Cl)c(C(F)CCCO)c1 (stereo not drawn) [Compound 23] and O=C(Nc1cc(F)c(F)c(F)c1)c1ccc(Cl)c(C(O)CCCO)c1 (stereo not drawn) [Compound 22] cannot be ordered by EC50: over 10 µM for the first, over 10 µM for the second.

N#Cc1ccc(NC(=O)c2ccc(Cl)c(C(F)(F)CCCO)c2)cc1F [Compound 13] and COc1ccc(NC(=O)c2ccc(Cl)c(C(F)(F)CCCO)c2)cc1C#N [Compound 5] cannot be ordered by EC50: over 10 µM for the first, over 10 µM for the second.

N#Cc1ccc(NC(=O)c2ccc(Cl)c(C(F)(F)CCCO)c2)cc1C(F)(F)F [Compound 19] and O=C(Nc1ccc(F)c(C(F)(F)F)c1)c1ccc(Cl)c(C(F)(F)CCCO)c1 [Compound 16] cannot be ordered by EC50: over 10 µM for the first, over 10 µM for the second.

O=C(Nc1ccc(C(F)(F)F)c(Cl)c1)c1ccc(Cl)c(C(F)(F)CCCO)c1 [Compound 18] and O=C(Nc1ccc(F)c(Cl)c1)c1ccc(Cl)c(C(F)(F)CCCO)c1 [Compound 17] cannot be ordered by EC50: over 10 µM for the first, over 10 µM for the second.

First: CC(F)(CCCO)c1cc(C(=O)Nc2cc(F)c(F)c(F)c2)ccc1Cl (stereo not drawn) [Compound 21]
Second: O=C(Nc1cc(F)c(F)c(F)c1)c1ccc(Cl)c(C(F)(F)CCCO)c1 [Compound 1]
The EC50 of the first is higher: over 10 µM for the first, under 1 µM for the second. The second is the more potent here.

CC(C)(C)NC(=O)OCCCC(F)(F)c1cc(C(=O)Nc2ccc(Cl)c(C#N)c2)ccc1Cl [Compound 10] and CCNC(=O)OCCCC(F)(F)c1cc(C(=O)Nc2ccc(Cl)c(C#N)c2)ccc1Cl [Compound 7] cannot be ordered by EC50: over 10 µM for the first, over 10 µM for the second.

Compared with O=C(Nc1cc(F)c(F)c(F)c1)c1ccc(Cl)c(C(F)(F)CCCF)c1 [Compound 3], COC(=O)OCCCC(F)(F)c1cc(C(=O)Nc2cc(F)c(F)c(F)c2)ccc1Cl [Compound 2] is higher in EC50: under 1 µM for the first, 1 to 10 µM for the second.

N#Cc1cc(NC(=O)c2ccc(Cl)c(C(F)(F)CCCOC(=O)Nc3ccccc3)c2)ccc1Cl [Compound 9] and N#Cc1cc(NC(=O)c2ccc(Cl)c(C(F)(F)CCCOC(=O)NCc3ccccc3)c2)ccc1Cl [Compound 8] cannot be ordered by EC50: over 10 µM for the first, over 10 µM for the second.

Work on OCCCC(F)(F)c1cc(-c2nc(-c3ccc(F)c(Br)c3)c[nH]2)ccc1Cl [Compound 20] yielded an EC50 of over 10 µM.

system: not listed separately; experiment: Compound toxicity by ATPlite 1 Step (total ATP levels); type: cell-based; details: human; HepAD38 cells, day of harvest; 50% reduction of total ATP vs no drug controls
Experimental: as §1
Additionally, on day of harvest, compound toxicity is evaluated by treating cells with ATPlite 1 Step according to the manufacturer's protocol. Compound concentrations that reduce total ATP levels in wells by 50% relative to no drug controls (CC50) are reported; CC50 ranges are as follows: […].

First: CC(F)(CCCO)c1cc(C(=O)Nc2cc(F)c(F)c(F)c2)ccc1Cl (stereo not drawn) [Compound 21]
Second: O=C(Nc1cc(F)c(F)c(F)c1)c1ccc(Cl)c(C(F)(F)CCCO)c1 [Compound 1]
The CC50 of the first is higher: over 30 µM for the first, under 10 µM for the second.

Compared with O=C(Nc1cc(F)c(F)c(F)c1)c1ccc(Cl)c(C(F)(F)CCCF)c1 [Compound 3], COC(=O)OCCCC(F)(F)c1cc(C(=O)Nc2cc(F)c(F)c(F)c2)ccc1Cl [Compound 2] is higher in CC50: under 10 µM for the first, 10 to 30 µM for the second.
